# Data as given in paper PMC11062899, “De novo development of small cyclic peptides that are orally bioavailable” (Nature Chemical Biology, 2023).
# Where “and” joins values, the source holds several entries; their conditions need not be identical. Identical values can stand only once.
# Legend:
# [1] = Metabolic stability in rat liver microsomes (RLMs); conditions: rat, microsomes
# [2] = Passive artificial membrane permeability (PAMPA)
# porcine pepsin = molecular target: T1, porcine pepsin (Sus scrofa, UniProt P00791); assay: Peptide stability in simulated gastric fluid (SGF); type: in vitro ADME
# T1 construct: 0.32 g of porcine pepsin (Sigma-Aldrich, P7125) was dissolved under gentle agitation; purchased Sigma-Aldrich P7125
# In short: (§1)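 Peptide from a 1 mM DMSO stock was added to fluid pre-warmed at 37 °C. SGF was pH 1.2 NaCl with porcine pepsin (0.32 g per 100 ml), and SIF was pH 6.8 potassium phosphate with porcine pancreatin (1 g per 100 ml). Supernatant peptide was quantified by LC–MS, with residual expressed as T1/T0.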
# rat α-thrombin = molecular target: T2, rat α-thrombin (Rattus norvegicus, UniProt P18292); assay: Protease inhibition, Ki for rat α-thrombin (fluorogenic substrate Z-Gly-Gly-Arg-AMC); type: biochemical; conditions: replicates R1-R3
# T2 construct: rat α-thrombin (Molecular Innovations) were used at final concentrations of 2 nM and 3 nM; purchased Molecular Innovations
# In short: (§2)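 Ki values come from Cheng–Prusoff correction of IC50, itself fitted by four-parameter logistic regression of activity versus a no-peptide control. Assays used 2 nM human or 3 nM rat thrombin, 50 μM Z-Gly-Gly-Arg-AMC, 30 min kinetic fluorescence at 25 °C.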
# human α-thrombin = human α-thrombin (Homo sapiens, UniProt P00734); assay: Protease inhibition, Ki for human α-thrombin (fluorogenic substrate Z-Gly-Gly-Arg-AMC); type: biochemical; conditions: replicates R1-R3
# In short: as §2
# [3] = Peptide stability in simulated intestinal fluid (SIF); type: in vitro ADME, porcine; conditions: simulated gi fluid; 8 h, 37 °C, pH 6.8; read-out: Proteolytic stability: SIF (8 h) % remaining
# In short: as §1
# porcine pancreatin = assay: as above; type: in vitro ADME; conditions: after 8 h vs 0 h (TIC)
# In short: as §1
# [4] = peptide 1.33E+02 uM, slope of proteolytic substrate cleavage over time
# T1 sequence (P00791 60-385): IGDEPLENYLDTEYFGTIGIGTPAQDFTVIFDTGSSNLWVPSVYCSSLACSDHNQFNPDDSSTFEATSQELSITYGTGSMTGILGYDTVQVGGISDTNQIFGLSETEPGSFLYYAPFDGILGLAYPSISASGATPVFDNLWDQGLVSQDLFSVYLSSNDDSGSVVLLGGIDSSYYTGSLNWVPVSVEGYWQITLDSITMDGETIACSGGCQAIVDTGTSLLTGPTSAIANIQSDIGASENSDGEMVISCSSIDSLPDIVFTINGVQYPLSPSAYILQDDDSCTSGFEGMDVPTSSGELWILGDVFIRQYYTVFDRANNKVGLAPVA
smiles,measurement,setting,value
O=C1CCSC/C=C/CSCCNC(=O)[C@H](CNC(=O)c2ccc(Cl)s2)NC(=O)[C@H](Cc2ccccn2)N1 [compound 22],microsomal CLint,"[1]; CL (ul/min/mg protein) R1, RLM CL, replicate R1",266 µL/min/mg
same,microsomal CLint,"[1]; CL (ul/min/mg protein) R2, RLM CL, replicate R2",255 µL/min/mg
same,microsomal CLint,"[1]; CL (ul/min/mg protein) R3, RLM CL, replicate R3",248 µL/min/mg
same,half-life,"[1]; Half Life (min) R1, RLM metabolic stability, replicate R1, 0-60 min",5.21 min
same,half-life,"[1]; Half Life (min) R2, RLM metabolic stability, replicate R2, 0-60 min",5.44 min
same,half-life,"[1]; Half Life (min) R3, RLM metabolic stability, replicate R3, 0-60 min",5.58 min
same,half-life,"[1]; Metabolic stability: Half life T1/2 (min), RLMs, mean and SD, three measurements",5.4 ± 0.2 min
same,microsomal CLint,"[1]; Metabolic stability: RLM CL (ul/min/mg), RLMs, mean and SD, three measurements",260 ± 10 µL/min/mg
same,PAMPA permeability: % permeability,"[2]; 50 μM, 12–18 h, acceptor concentration relative to equilibrium",16 ± 7%
same,Papp at 50 μM,"[2]; PAMPA, pH 7.4",1.05 ×10⁻⁶ cm/s
same,Permeability% Average,"[2]; PAMPA, average of R1-R3",15.5%
same,Permeability% R1,"[2]; PAMPA, replicate R1, TIC of top well sample relative to sample at theoretical equilibrium",9.36%
same,Permeability% R3,"[2]; PAMPA, replicate R3, TIC of top well sample relative to sample at theoretical equilibrium",23.67%
same,"SGF stability, Residual peptide Average","porcine pepsin; after 8 h vs 0 h (TIC), average of R1-R3",96.43
same,"SGF stability, Residual peptide","porcine pepsin; after 8 h vs 0 h (TIC), single replicates R1-R3",98.71 and 95.02 and 95.57
same,remaining at 8 h,"porcine pepsin; simulated gi fluid, 8 h, 37 °C, pH 1.2, read-out: Proteolytic stability: SGF (8 h) % remaining",96 ± 2%
same,"Rat alpha thrombin inhibition, slope normalized to DMSO",rat α-thrombin; [4],2.8 and 3.3 and 1.9
same,"Rat alpha thrombin inhibition, slope normalized to DMSO",rat α-thrombin; peptide 1.67E+01 uM,7.6 and 6.1 and 7.2
same,"Rat alpha thrombin inhibition, slope normalized to DMSO",rat α-thrombin; peptide 2.08E+00 uM,33.9 and 32.6 and 33.7
same,"Rat alpha thrombin inhibition, slope normalized to DMSO",rat α-thrombin; peptide 3.33E+01 uM,4.8 and 4.2 and 4.5
same,"Rat alpha thrombin inhibition, slope normalized to DMSO",rat α-thrombin; peptide 4.17E+00 uM,21.3 and 20.5 and 20.2
same,"Rat alpha thrombin inhibition, slope normalized to DMSO",rat α-thrombin; peptide 6.67E+01 uM,3.3 and 2.6 and 2.7
same,"Rat alpha thrombin inhibition, slope normalized to DMSO",rat α-thrombin; peptide 8.33E+00 uM,13.5 and 12.2 and 12.7
same,"Human alpha thrombin inhibition, slope normalized to DMSO",human α-thrombin; peptide 1.02E-03 uM,102.8 and 97.7 and 93.9
same,"Human alpha thrombin inhibition, slope normalized to DMSO",human α-thrombin; peptide 1.04E+00 uM,77.5 and 70.0 and 74.3
same,"Human alpha thrombin inhibition, slope normalized to DMSO",human α-thrombin; peptide 1.27E-04 uM,100.4 and 110.4 and 99.0
same,"Human alpha thrombin inhibition, slope normalized to DMSO",human α-thrombin; peptide 1.30E-01 uM,97.9 and 99.8 and 91.2
same,"Human alpha thrombin inhibition, slope normalized to DMSO",human α-thrombin; [4],5.1 and 4.3 and 6.3
same,"Human alpha thrombin inhibition, slope normalized to DMSO",human α-thrombin; peptide 1.63E-02 uM,96.1 and 101.1 and 95.8
same,"Human alpha thrombin inhibition, slope normalized to DMSO",human α-thrombin; peptide 1.67E+01 uM,20.9 and 21.1 and 17.2
same,"Human alpha thrombin inhibition, slope normalized to DMSO",human α-thrombin; peptide 2.03E-03 uM,100.4 and 98.0 and 100.5
same,"Human alpha thrombin inhibition, slope normalized to DMSO",human α-thrombin; peptide 2.08E+00 uM,66.4 and 63.2 and 62.8
same,"Human alpha thrombin inhibition, slope normalized to DMSO",human α-thrombin; peptide 2.54E-04 uM,104.5 and 97.0 and 96.4
same,"Human alpha thrombin inhibition, slope normalized to DMSO",human α-thrombin; peptide 2.60E-01 uM,95.1 and 92.0 and 90.3
same,"Human alpha thrombin inhibition, slope normalized to DMSO",human α-thrombin; peptide 3.18E-05 uM,99.7 and 98.9 and 101.2
same,"Human alpha thrombin inhibition, slope normalized to DMSO",human α-thrombin; peptide 3.26E-02 uM,99.6 and 98.9 and 96.4
same,"Human alpha thrombin inhibition, slope normalized to DMSO",human α-thrombin; peptide 3.33E+01 uM,10.4 and 11.3 and 12.9
same,"Human alpha thrombin inhibition, slope normalized to DMSO",human α-thrombin; peptide 4.07E-03 uM,102.1 and 98.1 and 100.5
same,"Human alpha thrombin inhibition, slope normalized to DMSO",human α-thrombin; peptide 4.17E+00 uM,49.4 and 48.2 and 42.7
same,"Human alpha thrombin inhibition, slope normalized to DMSO",human α-thrombin; peptide 5.09E-04 uM,105.6 and 97.1 and 101.8
same,"Human alpha thrombin inhibition, slope normalized to DMSO",human α-thrombin; peptide 5.21E-01 uM,84.4 and 88.3 and 83.4
same,"Human alpha thrombin inhibition, slope normalized to DMSO",human α-thrombin; peptide 6.36E-05 uM,104.9 and 95.6
same,"Human alpha thrombin inhibition, slope normalized to DMSO",human α-thrombin; peptide 6.51E-02 uM,99.3 and 101.7 and 95.4
same,"Human alpha thrombin inhibition, slope normalized to DMSO",human α-thrombin; peptide 6.67E+01 uM,5.8 and 5.7 and 8.8
same,"Human alpha thrombin inhibition, slope normalized to DMSO",human α-thrombin; peptide 8.14E-03 uM,101.9 and 98.8 and 103.6
same,"Human alpha thrombin inhibition, slope normalized to DMSO",human α-thrombin; peptide 8.33E+00 uM,31.4 and 24.4 and 30.5
same,remaining at 8 h,[3],96 ± 9%
same,"SIF stability, Residual peptide Average",porcine pancreatin; average of R1-R3,96.16
same,"SIF stability, Residual peptide",porcine pancreatin; single replicates R1-R3,94.79 and 87.84 and 105.86
